Laboratory results published in patent EP1121151B1, “ANTI-INFLAMMATORY ALPHA2, BETA1 INTEGRIN-RELATED SUBSTANCES OR ANTIBODIES” (Lindbom, Lennart, priority 1998, dated 2006).

Tested on: PMN
Test: Intravital time lapse videomicroscopy of PAF-stimulated PMN locomotion in rat mesenteric tissue in vivo
Conditions: rat mesentery, PAF 10^-7 M
Procedure: Intravital time lapse videomicroscopy of PMN locomotion in vivo. PMN locomotion in rat mesenteric tissue was studied through use of intravital time lapse videomicroscopy according to the protocol previously described in detail (Werr et al., supra). In brief, Wistar rats (200-250 g) were anesthetized with equal parts of fluanison/fentanyl (10/0.2 mg/ml; Hypnorm; Janssen-Cilag Ltd., Saunderton, UK) and midazolam (5 mg/ml; Dormicum; Hoffman-La Roche, Basel, Switzerland) diluted 1:1 with sterile water (2 ml/kg i.m.). Body temperature was maintained at 37° C by a heating pad connected to a rectal thermistor. After laparotomy, a segment of the ileum was exposed on a heated transparent pedestal to allow microscopic observation of the mesenteric microvasculature (Orthoplan microscope equipped with water immersion lens SW×25, NA 0.60; Leitz, Wetzlar, Germany). The microscopic image was televised and recorded on time lapse video (at 1/7 of normal speed). Analysis of leukocyte migration in the mesenteric tissue was made off line and the migration path of individual leukocytes was tracked with a digital image analyzer. […]

Sequence: ACRGDGWMCG
- effect on PMN migration at ten-fold higher concentrations (ten-fold higher concentrations than 500 µM, some experiments): did not yield different effects
- effect on PMN migration (topical administration, peptide 500 µM): without effect
